Source: patent publication US10989721B2, “Additive channels” (Emulate Inc., priority 2016, dated 2021)
Entries after “also recorded” stand apart in the source; their conditions may differ. Structures can show the parent of a compound that is named as a salt. Positions of bridges follow the written chain, without caps; N, C: chain ends. Non-standard residues stand in square brackets, D forms with d. Residues, ends and D or L forms follow the SMILES beside them. hArg = N=C(N)NCCCC[C@H](N)C(=O)O; Mpa = O=C(O)CCS

Columns and labels:
Assay type in all cases: cell-based, human
[1] = test system: platelets; assay: Vessel-On-Chip blood perfusion: platelet coverage/aggregation by fluorescence imaging (CD41 label); settings: for platelet aggregate formation compared to untreated blood: hu5C8 240 μg/mL, sCD40L 10 ng/ml, alone or combined, 4 donors, 60 μl/minute
Method: (§1) Briefly, human blood was drawn in citrate buffer and used within 4 hours. Platelets were stained using fluorescently labeled non-blocking antibodies for the platelet surface marker CD41 and low dosages of fluorescent fibrinogen were added in order to visualize fibrin deposition. Blood was re-calcified in order to re-establish the full coagulation potential, then introduced in the biomimetic vessel-on-chip from the main inlet (embodiments of inlets shown in FIG. 18A-1, FIG. 18A-2 and FIG. 19C). The outlet of the chip was connected to a pulling syringe pump with a system of tubing and connectors made of medical grade silicon that excludes any metal components or potential causes of platelet activation (FIG. 5A).
(§2) After 14 minutes of perfusion, the flow was interrupted and the chips were immediately imaged via fluorescence microscopy (FIG. 18C and FIG. 19D). In healthy conditions, endothelial cells will provide an antithrombotic surface where blood can flow smoothly, and indeed we detected minimal platelet adhesion or fibrin deposition in our vessel-on-chip after blood perfusion in control conditions, FIG. 18C, Blood.
Cell-monolayer integrity: Transmission light microscopy was routinely used to assess cell-monolayer integrity prior to each experiment. Before every experiment, each one of the endothelialized channels was inspected via light microscopy. Samples showing any sign of discontinuity in the endothelium were discarded. Vascular leakage assay as test for tissue integrity: The ability of cells to form a confluent monolayer was monitored for one week measuring vascular leakage of dextran (ThermoFisher). In order to measure vascular leakage the vascular channel was perfused with cell culture medium containing fluorescent dextran-cascade blue (3 kDa, ThermoFisher). The apical compartment was perfused with plain medium (without FBS). At various time points, the effluent from the chip was collected, and the relative fluorescence of the top and bottom compartments were measured using a standard plate reader. […] TNF-alpha Stimulation: In some experiment endothelial cells were stimulate with 50 ng/ml of TNF (Sigma) for 6 hours in order to induce vascular inflammation before blood perfusion. Experiments with Blood: Blood Samples And Endothelium: Citrated human blood (Research Blood Components, Cambridge, Mass.) was used within 4 hours of a blood draw in order to minimize pre-analytical effects on platelet function. Before every experiment, each one of the endothelialized channels (i.e. microchannels having an endothelial cell layer) was inspected via light microscopy. Samples showing any sign of discontinuity in the endothelium were discarded. […] USA) was at room temperature for 20 minutes. Cloning, Expression and Purification: Generation of IgG2σ was previously described (Vafa, O. et al. An engineered Fc variant of an IgG eliminates all immune effector functions via structural perturbations. Methods 65:114-126 (2014)). 5c8 human IgG1 and human IgG2-Sigma Fc variants were produced in Sino Biological Inc. Gene fragments encoding the 5c8 heavy and light chains were synthesized and cloned into mammalian expression vectors. DNA was produced and used in transient transfections with HEK293. Antibodies were purified using Protein A affinity chromatography and formulated in phosphate-buffered saline (DPBS), pH 7.4. Blood Pre-treatment and Perfusion: Formation of IC (preformed IC): Hu5C8, IgG2σ (control) (both provided by Janssen or provided as described herein) For studies with preformed IC, Hu5C8 or IgG2σ as an isotype control were combined with sCD40L (Tonbo Biosciences, San Diego, Calif.) in PBS, in a ratio of 1 molecule of sCD40L to 3000 molecules of antibody. After 20 minutes incubation at room temperature, the solution was diluted in a blood sample to reach the final concentration of 240 μg/ml (Hu5C8) and 10 ng/ml (sCD40L). […]

[2] = test system: fibrin; assay: Vessel-On-Chip blood perfusion: fibrin deposition by fluorescent fibrinogen imaging; settings: for fibrin deposition on the endothelium compared to untreated blood: hu5C8 240 μg/mL, sCD40L 10 ng/ml, alone or combined, 4 donors, 60 μl/minute
Method: as §1, §2
Cell-monolayer integrity: Transmission light microscopy was routinely used to assess cell-monolayer integrity prior to each experiment. Before every experiment, each one of the endothelialized channels was inspected via light microscopy. Samples showing any sign of discontinuity in the endothelium were discarded. Vascular leakage assay as test for tissue integrity: The ability of cells to form a confluent monolayer was monitored for one week measuring vascular leakage of dextran (ThermoFisher). In order to measure vascular leakage the vascular channel was perfused with cell culture medium containing fluorescent dextran-cascade blue (3 kDa, ThermoFisher). The apical compartment was perfused with plain medium (without FBS). At various time points, the effluent from the chip was collected, and the relative fluorescence of the top and bottom compartments were measured using a standard plate reader. […] TNF-alpha Stimulation: In some experiment endothelial cells were stimulate with 50 ng/ml of TNF (Sigma) for 6 hours in order to induce vascular inflammation before blood perfusion. Experiments with Blood: Blood Samples And Endothelium: Citrated human blood (Research Blood Components, Cambridge, Mass.) was used within 4 hours of a blood draw in order to minimize pre-analytical effects on platelet function. Before every experiment, each one of the endothelialized channels (i.e. microchannels having an endothelial cell layer) was inspected via light microscopy. Samples showing any sign of discontinuity in the endothelium were discarded. […] USA) was at room temperature for 20 minutes. […]

[3] = test system: re-calcified blood; assay: On-chip anticoagulation of outflowing re-calcified blood through the anticoagulant port; settings: sodium citrate introduced through the anticoagulant port next to the outflow port
Source text: In order to functionally test the system, re-calcified blood was perfused through the inlet while anticoagulant, e.g. citrate buffer, was introduced online from the port situated next to the outflow port. Thus, blood obtained from the effluent of chips equipped with the anticoagulant port or without anticoagulant port were compared (FIG. 6). From a qualitative point of view the difference was striking.
In order to functionally test the additive channel (i.e. microfluidic chamber(s)) attached to the outflow port of a Vessel-On-Chip, re-calcified blood was perfused through the inlet port while citrate was introduced online from a port situated next to the outflow port, flowing through the additive channel. Thus, blood obtained from the effluent of chips equipped with the anticoagulant port (additive channel) or without anticoagulant port were compared (FIG. 6). From a qualitative point of view the difference was striking.

[4] = test system: thrombin anti-thrombin complex (TAT); assay: Thrombin anti-thrombin (TAT) ELISA in plasma from chip effluent; settings: outflow samples; TNF-α pre-treatment of endothelium, or sCollagen or hu5C8/sCD40L in blood before perfusion
Method: Thrombin converts fibrinogen into fibrin during clot formation, and anti-thrombin plays a role in maintaining homeostasis by inhibiting the effect of thrombin. Formation of TAT in the microdevice confirms that local and intrinsic generation of thrombin, a potent platelet agonist, occurs in the model and that counter regulatory mechanisms for coagulation are retained. Thus, blood sampled from the Vessel-On-Chip was analyzed for thrombin anti-thrombin complex (TAT), an accepted clinical biomarker for procoagulation^48,49. […] An enzyme-linked immunosorbent assay (ELISA) was used to quantify the thrombin anti-thrombin complex (TAT).
Thrombin-Anti Thrombin (TAT) measurement via ELISA: Thrombin Anti-Thrombin (TAT) levels were analyzed in plasma from blood flowing out of the chip device by removing a sample from the outflow port. Thus TAT levels were evaluated in sample effluents collected from the outflow port of the chip using the Human TAT ELISA Kit (Siemens Healthineers) according to the user manual.
Blood sampled from the Vessel-On-Chip outflow port was analyzed for thrombin anti-thrombin complex (TAT), a factor released upon activation of the coagulation cascade and one of the biomarkers associated with thrombotic events occurring in patients affected with deep vein thrombosis (DVT) or SLE^45,46. […]

[5] = test system: ICAM1; assay: ICAM1 immunostaining of endothelium on-chip; settings: TNF-α 50 ng/ml, 6 hours
Source text: ICAM1 is shown with examples identified by white arrows. One example of a DAN stained nuclei is shown inside of a white circle.
Diverse structural characteristics of blood clots induced by the two experimental stimuli were captured via scanning electron microscopy (SEM) as colored images in FIG. 18D.

[6] = test system: hu5C8-mediated thrombosis; assay: hu5C8-mediated thrombosis on-chip, FcγRIIa dependence (platelet coverage, fibrin deposition, TAT); settings: with sCD40L 10 ng/ml, IV.3 1 μg/ml pre-block of FcγRIIa, or IgG2σ variant in place of hu5C8
Source text: Recent studies conducted on humanized mice expressing the human Fcγ receptors (FCGR2A) have shown that this receptor plays a role in thrombosis leading to the IC-mediated toxicity^12,16,21. […] In order to investigate if the IC5c8-induced thrombosis that we observed in our vessel-on-chip system also relies on an Fc-mediated mechanism, we used two different tool molecules: IgG2σ and IV.3 (FIG. 25A). The IgG2σ variant of hu5C8 has an engineered Fe region^48 that eliminates affinity for the FcγRIIa, while the monoclonal antibody IV.3 is a blocking antibody binding to FcγRIIa. Briefly, equimolar concentrations of IgG2σ or hu5c8 were incubated with 10 ng/ml of sCD40L for 20 minutes to form ICIgG2σ or IC5c8, respectively.
Some of the blood samples were treated with IV.3 (1 μg/ml) for 10 minutes to block the FcγRIIa, and then incubated for 20 more minutes with IC5c8. Finally, blood alone (control) or blood incubated with IC5c8, ICIgG2σ or IV.3 was perfused through the biomimetic microfluidic-on-chip for about 10 minutes. We tested 15 donors and all the tested conditions described above were tested in duplicates and analyzed as percentage of platelet coverage based on fluorescence microscopic imaging (FIG. 25B). Five of the donors were also tested for fibrin deposition (FIG. 25C). Finally, effluents plasma obtained from a total of 7 of the donors (including the 5 mentioned before) were used to assess TAT via ELISA (FIG. 25D). […]
Blood from several human donors were aliquoted into groups for the following treatments: controls (PBS), sCD40L, combined hu5C8/sCD40L, combined hu5C8 (IgG2σ)/sCD40L combined, and combined hu5C8/sCD40L/IV.3. Each condition was tested with a minimum of 3 donors to a maximum of 15 donors, and all conditions were tested in duplicates and analyzed for platelet coverage (FIG. 25B), fibrin deposition (FIG. 25C), or increased formation of TAT measured in the eluates (FIG. 25D). […]

[7] = TNF-α 50 ng/ml 6 hours endothelial pre-treatment or sCollagen 10 μg/ml in blood, vs blood alone

## N=C(N)NCCCC[C@@H]1NC(=O)CCSSC[C@@H](C(N)=O)NC(=O)[C@@H]2CCCN2C(=O)[C@H](Cc2c[nH]c3ccccc23)NC(=O)[C@H](CC(=O)O)NC(=O)CNC1=O [Eptifibatide] ([Mpa][hArg]GDWPC-NH2; disulfide 1-7)
[1]; adding Eptifibatide, n=4 donors (FIG. 18E)
  effects of pro-thrombotic conditions (TNF-α, sCollagen) on platelet coverage and fibrin deposition: suppressed
[2]; Eptifibatide 2 ug/ml, samples treated with TNF-α, n=4
  fibrin signal (image analysis): still detectable

## O=C(O)CC(O)(CC(=O)O)C(=O)O [sodium citrate]
[3]
  state of blood collected at the end of each experiment: soluble (not clotted)

## TNF-α
[1]; [7]
  areas of platelet coverage: increased
[2]; [7]
  fibrin signal intensity: increased
[4]
  levels of TAT: significantly increased; also recorded: elevated
[5]
  expression of ICAM1 in the endothelium compared to the control: increased expression

## hu5C8: humanized monoclonal IgG1 antibody against CD40L (anti-CD154)
[1]
  platelet aggregate formation compared to untreated blood: no significant treatment-related effects
[2]
  fibrin deposition on the endothelium compared to untreated blood: no significant treatment-related effects

## sCD40L: soluble CD40 ligand; recombinant human sCD40 Ligand
[1]
  platelet aggregate formation compared to untreated blood: no significant treatment-related effects
[1]; sCD40L alone, Example 5
  increase in platelet coverage over untreated control, some donors: about 2 fold
  mean increase in platelet coverage compared to controls: not statistically significant
[2]
  fibrin deposition on the endothelium compared to untreated blood: no significant treatment-related effects

B1: hu5C8 (IgG2σ): IgG2σ variant of hu5C8 with engineered Fc region that eliminates affinity for FcγRIIa (antibody, chains of the INN, looked up, V domains shown)
VH: QVQLVQSGAEVVKPGASVKLSCKASGYIFTSYYMYWVKQAPGQGLEWIGEINPSNGDTNFNEKFKSKATLTVDKSASTAYMELSSLRSEDTAVYYCTRSDGRNDMDSWGQGTLVTVSS
VL: DIVLTQSPATLSVSPGERATISCRASQRVSSSTYSYMHWYQQKPGQPPKLLIKYASNLESGVPARFSGSGSGTDFTLTISSVEPEDFATYYCQHSWEIPPTFGGGTKLEIK
modifications: IgG2σ engineered Fc lacking FcγRIIa binding
[6]
  hu5C8-mediated thrombosis on-chip (platelet coverage, fibrin deposition, TAT): did not show signs of thrombosis
[6]; listed as IgG2σ
  hu5C8-mediated thrombosis on-chip (platelet coverage, fibrin deposition, TAT): suppressed
[6]; listed as hu5C8-IgG2σ
  hu5C8-mediated thrombosis on-chip (platelet coverage, fibrin deposition, TAT): not detected
